This passage reports EC50, IC50 and outcome results from PubChem BioAssay AID179 (DTP/NCI, 2004).

Values joined by “and” are separate entries in the source; they are usually repeats but may differ in a detail not shown here. Equal entries are not always repeated. Active and inactive are the calls of the source.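 How the source made its calls: active means compounds giving half or more protection of infected cells from virus-caused growth loss, again on retest; inactive means the rest.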

The experiment deals with CEM cells HIV-1 protection, formazan growth assay. The experiment is described as follows: NCI AIDS Antiviral Assay. Particulars: for IC50: measured here: growth of uninfected CEM cells. A digest of the protocol:
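Protection of CEM cells against HIV-1 was scored from cell growth (soluble formazan) across five concentrations, with parallel uninfected cells. Lack of protection may reflect toxicity.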

`COCN(COC)c1nc(CCC(Br)(Br)Br)nc(N(COC)COC)n1`: the EC50 is > 83.2 µM and the IC50 came out at 37.2 µM.
As to `CC(C)C1=C(O)C2=C(C(=O)C1=O)C1(C)CCCC(C)(C)C1CC2O` (stereo not drawn), the EC50 is > 200 µM; the IC50 was 14.5 µM and 13.8 µM.
For the molecule `COc1ccc(C(=O)C(C(=O)C(=O)Nc2nccs2)c2ccc(OC)cc2)cc1` (stereo not drawn), the EC50 was > 63.1 µM and the IC50 is > 63.1 µM.
`COCCN1C(=O)C(NC(C)=O)[C@H]1COC(C)(C)C` (stereo partly drawn): the EC50 was > 661 µM and the IC50 is > 661 µM.
On to `Cc1cc(N(CCC#N)CCC#N)ccc1/C=C1/N=C(c2ccccc2)N(N)C1=O`, for which the EC50 is > 63.1 µM and the IC50 came out at 42.7 µM.
For `Cc1c2c(n3c(nc4ccccc43)c1C#N)N(c1ccc(Cl)cc1)CC2`, the EC50 is > 50.1 µM and the IC50 is > 50.1 µM.
Consider `O=C1/C(=C/c2ccc(Cl)cc2)CSC/C1=C\c1ccc(Cl)cc1`, for which the EC50 is > 200 µM and the IC50 was determined as 2.63 µM.
Turning to `O=C1Nc2ccccc2C12CCCC2`, the result was inactive.
In the case of `N#Cc1cc([N+](=O)[O-])ccc1NC(=O)/C(=N\NC(=O)c1ccncc1)C(c1cnc2ccc([N+](=O)[O-])cc2n1)[N+](=O)[O-]` (stereo not drawn), the EC50 was > 45.7 µM and the IC50 is 8.71 µM.
In the same order, the values of `CC1(C)CCNc2ccccc2S1` are > 229 µM and > 229 µM.
As for `O=C1OCC(Cl)O1` (stereo not drawn), the EC50 was > 200 µM and the 50% inhibitory concentration (IC50) is > 200 µM.
For `Cc1occc1C(=S)Nc1ccc(Cl)c(C(=O)OC(C)C2CC2)c1` (stereo not drawn), the EC50 is 0.0234 µM and the IC50 amounted to 47.9 µM.
On the same counts, the results for `O=C1CSC(Cc2nc3ccccc3[nH]2)=N1` are > 30.9 µM and > 30.9 µM.
On the same counts, the results for `CCCCCN(CCCCC)/N=C/c1c2c(O)c3c(O)c(C)c4c(c3c1O)C(=O)C(C)(O/C=C/C(OC)C(C)C(OC(C)=O)C(C)C(O)C(C)C(O)C(C)/C=C/C=C(C)C(=O)N2)O4` (stereo not drawn) are > 200 µM and 8.32 µM.
On the same counts, the results for `O=C1c2c(F)c(F)c(F)c(F)c2SC2=Nc3cccc4cccc(c34)N12` are > 200 µM and 1 µM.
In the case of `CC(C)n1c(=O)n(-c2ccccc2)n(C(C)(C)C)c1=O`, the EC50 is > 200 µM and the IC50 is > 100 µM.
In the same order, the values of `CCOC(=O)/C(C#N)=C(O)/C(=C/c1ccccc1Cl)NC(=O)c1ccccc1` are > 631 µM and > 631 µM.
`CCN1CN(c2ccccc2)C2(CCN(CCCSc3ccc(F)cc3)CC2)C1=O`: the EC50 is > 200 µM and the IC50 worked out at 10 µM.
In the same order, the values of `COc1ccccc1C1C=NNC1` (stereo not drawn) are > 200 µM and 107 µM.
On the same counts, the results for `CC1=C(C(=O)NCC(C)O)CC(C(=O)NCC(C)O)=C(C)N1` (stereo not drawn) are > 200 µM and > 200 µM.
With `N/N=C(\c1ccccc1)c1cccs1`, the EC50 was > 200 µM and the half-inhibitory concentration (IC50) was > 200 µM.
Turning to `CCSc1nc2c([nH]1)c(=S)n(C)c(=S)n2C`, the EC50 is > 200 µM and the IC50 worked out at 41.7 µM.
On the same counts, the results for `COc1ccc(Oc2c(OC)cc(NCc3ccc(CN)cc3)c3ncccc23)cc1` are > 200 µM and 27.5 µM.
As to `CCOC(=O)[C@H]1Nc2ccc(OC)cc2C2c3ccccc3CC21` (stereo partly drawn), the EC50 was > 57.5 µM and the IC50 is > 57.5 µM.
As for `CCCC/C=C/Cc1[nH]c2ccccc2c(=O)c1C`, the EC50 was > 28.2 µM.
In the case of `CCCCCCCCCCNC1CC(OC2CC(O)(C(O)CO)Cc3c(O)c4c(c(O)c32)C(=O)c2c(OC)cccc2C4=O)OC(C)C1O` (stereo not drawn), the result was inactive.
Consider `CCCCCC=C(c1cc(Br)cc(C(=O)O)c1O)c1cc(Br)cc(C(=O)O)c1O`, for which the concentration for a half-maximal effect (EC50) was > 166 µM and the IC50 came out at 15.8 µM.
On the same counts, the results for `COc1ccccc1S(=O)Nc1ccccc1` (stereo not drawn) are > 200 µM and > 200 µM.
On to `c1ccc(N2N=NC3CCCC32)cc1` (stereo not drawn), for which the EC50 is > 200 µM and the IC50 is 95.5 µM.
Take `COC(=O)C(/C(=N/N)C(=O)Nc1cc(Cl)ccc1Cl)c1nc2ccc([N+](=O)[O-])cc2[nH]c1=O` (stereo not drawn): the EC50 is > 138 µM and the IC50 is > 138 µM.
Turning to `Cc1cn(C2C/C(=N\O)C(CO)O2)c(=O)[nH]c1=O` (stereo not drawn), the EC50 was 12.6 µM and the IC50 was 174 µM.
In the same order, the values of `COc1cc(Nc2cnc3cc(C(F)(F)F)ccc3n2)cc(OC)c1OC` are > 50.1 µM and > 50.1 µM.
Regarding `OC/C=C/c1ccc(O)c(O)c1`, the outcome was inactive.
For `COC(=O)[C@@H](Cc1ccccc1)NNC(=O)OC(C)(C)C`, the EC50 is > 851 µM and the IC50 was 437 µM.
On to `O=C(NC(=Nc1ccccc1)SCSC(=Nc1ccccc1)NC(=O)c1c(Cl)cccc1Cl)c1c(Cl)cccc1Cl`, for which the EC50 is > 200 µM and the IC50 is 14.1 µM.
As for `O=c1ccnc2ccc3n[nH][nH]c3c12`, the result was inactive.
Turning to `NC(N)=NS(=O)(=O)c1ccc(NCc2c3ccccc3[n+]([O-])c3ccccc23)cc1`, the result was inactive.
In the case of `O=C(SSC(=O)c1ccccc1)c1ccccc1`, the EC50 was > 200 µM and the IC50 turned out to be 22.4 µM.
Consider `N#C/C(=C\c1ccccc1F)C(=O)c1ccccc1`, for which the EC50 is > 75.9 µM and the IC50 was > 75.9 µM.
On to `CC(C)(C)CC(C)(C)c1ccc(O)c(SSc2cc(C(C)(C)CC(C)(C)C)ccc2O)c1`, for which the EC50 was > 200 µM and the IC50 was 25.7 µM.
In the same order, the values of `N#CCCN(CCC#N)c1ccc(/C=C2\SC(=S)NC2=O)cc1Br` are > 200 µM and > 200 µM.
As to `C=C1CN(S(=O)(=O)c2ccc(C)cc2)CCCN(CC2CC2)CCCN(S(=O)(=O)c2ccc(C)cc2)C1`, the EC50 is > 200 µM and the IC50 turned out to be 4.27 µM.
With `C=CCn1c(=O)c(C(=O)NC(=O)OCC)cn(C2CCCCC2)c1=O`, the EC50 is > 145 µM and the IC50 was > 145 µM.
For the molecule `COC(=O)C(CCSC)NC(=O)Cc1ccc(C(=O)c2ccccc2)cc1` (stereo not drawn), the EC50 was > 200 µM and the IC50 came to 34.7 µM.
`C=CC1=CSNN1`: the EC50 was > 437 µM and the IC50 was found to be 347 µM.
On to `Cc1cccc(C)c1N1C(=O)C(=O)C(c2nc3ccccc3s2)C(=Nc2cccc3c(=O)[nH][nH]c(=O)c23)C1=O` (stereo not drawn), for which the result was inactive.
Still for that read-out and setting: the value for `N#CC1(C#N)C2(c3ccccc3)OC(c3ccccc3)(c3cc4ccccc4cc32)C1(C#N)C#N` was “inactive”.
Regarding `Cc1cc(NS(=O)(=O)c2ccc(N)cc2)no1`, the EC50 is > 200 µM and the IC50 is > 200 µM.
Regarding `COc1ccc(-n2c(C)nc3ccc(NC4OC(CO)C(O)C(O)C4O)cc3c2=O)cc1` (stereo not drawn), the EC50 is > 200 µM and the IC50 was > 200 µM.
Regarding `CC(C)(C)[Si](C)(C)OC1C(/C=N\O)OC(n2ccc(=O)[nH]c2=O)C1O[Si](C)(C)C(C)(C)C` (stereo not drawn), the EC50 was > 200 µM and the IC50 came out at 3.55 µM.
On the same counts, the results for `Cc1cn(C2CC(F)C(COC(=O)CCCCCCCCCCCN=[N+]=[N-])O2)c(=O)[nH]c1=O` (stereo not drawn) are 0.000631 µM and 2 µM.
In the same order, the values of `COC(=O)c1cc(=O)n(Cc2ccco2)c(=Nc2ccccc2)s1` are > 100 µM and 13.8 µM.
As to `N#CC(NCc1cccc(CNC(C#N)c2ccccc2)c1)c1ccccc1` (stereo not drawn), the EC50 was > 200 µM and the IC50 stood at 89.1 µM.
